Test results from patent US11564928B1, “Cannabinoid receptor type 2 (CB2) modulators and uses thereof” (Teon Therapeutics, Inc., priority 2020, dated 2023).
pIC50: −log10 of the molar value. Where two headings read alike, the source gives them in different places.

Key:
[1] = molecular target: T1, human CB2 receptor (Homo sapiens (Human), UniProt P34972); test: CB2 receptor binding assay ([3H]CP-55,940 displacement, HEK-293 membranes)
[2] = molecular target: human recombinant CB1R (Homo sapiens (Human), UniProt P21554); test: CB1 receptor binding assay ([3H]CP-55,940 displacement, HEK-293 membranes)
Outline: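 Displacement of [3H]CP-55,940 was measured on human CB1R- or CB2R-transfected HEK-293 membranes after 120 min at 37 °C, in duplicate, with filtration and scintillation counting. For CB2R, incubation used Tris-HCl 50 mM, MgCl2 5 mM, CaCl2 1 mM, BSA 0.2%, pH 7.4. Ki values were derived from variable-slope IC50 fits using Cheng–Prusoff.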

[3] = molecular target: T1, human CB2 receptor; test: CB2 receptor cAMP assay (DiscoverX HitHunter cAMP XS+); type: cell-based; conditions: for Emax: CHO-K1, read-out: Max Stimulation %
Description: cAMP Hunter CHO-K-1 cell lines expressing human CB2 receptor (Eurofins) were expanded from freezer stocks according to standard procedures. Cells were seeded in a total volume of 20 μL into white walled, 384-well microplates and incubated at 37° C. for the appropriate time prior to testing. cAMP modulation in agonist, inverse agonist or antagonist format was determined using the DiscoverX HitHunter cAMP XS+ assay (Eurofins). For agonist determination, cells were incubated with sample in the presence of EC80 forskolin to induce response. Media was aspirated from cells and replaced with 15 μL 2:1 HBSS/10 mM Hepes: cAMP XS+Ab reagent. Intermediate dilution of sample stocks was performed to generate 4× sample in assay buffer containing 4× EC80 forskolin. 5 μL of 4× sample was added to cells and incubated at 37° C. or room temperature for 30 or 60 minutes. Final assay vehicle concentration was 1%. For inverse agonist determination, cells were preincubated with sample in the presence of EC20 forskolin. Media was aspirated from cells and replaced with 15 μL, 2:1 HBSS/10 mM Hepes: cAMP XS+Ab reagent. Intermediate dilution of sample stocks was performed to generate 4× sample in assay buffer containing 4× EC20 forskolin. 5 μL of 4× sample was added to cells and incubated at 37° C. or room temperature for 30 or 60 minutes. Final assay vehicle concentration was 1%. For antagonist determination, cells were pre-incubated with sample followed by agonist challenge at the EC80 concentration. Media was aspirated from cells and replaced with 10 μL 1:1 HBSS/Hepes: cAMP XS+Ab reagent. 5 μL of 4× compound was added to the cells and incubated at 37° C. or room temperature for 30 minutes. 5 μL of 4× EC80 agonist was added to cells and incubated at 37° C. or room temperature for 30 or 60 minutes. EC80 forksolin was included. After appropriate compound incubation, assay signal was generated through incubation with 20 μL cAMP XS+ED/CL lysis cocktail for one hour followed by incubation with 20 μL, cAMP XS+EA reagent for three hours at room temperature. Microplates were read following signal generation with a PerkinElmer Envision instrument for chemiluminescent signal detection. Compound activity was analyzed using CBIS data analysis suite (ChemInnovation, CA). For agonist mode assay, percentage activity is calculated using the following formula: % Activity=100%×(1−(mean RLU of test sample−mean RLU of MAX control)/(mean RLU of vehicle control−mean RLU of MAX control)). For inverse agonist mode assay, percentage activity is calculated using the following formula: % Inverse Agonist Activity=100%×((mean RLU of test sample−mean RLU of EC20 forskolin)/(mean RLU of forskolin positive control−mean RLU of EC20 control)). For antagonist mode assay, percentage inhibition is calculated using the following formula: % Inhibition=100%×(mean RLU of test sample−mean RLU of EC80 control)/(mean RLU of forskolin positive control−mean RLU of EC80 control). Data are analyzed and IC50 is calculated using GraphPad Prism 5 and the model “log(inhibitor) vs. response—Variable slope”.

[4] = membranes of HEK-293 cells with human recombinant CB2R, [3H]CP-55,940, read-out: CB2 IC50
[5] = membranes of HEK-293 cells with human recombinant CB1R, [3H]CP-55,940, read-out: CB1 IC50
[6] = membranes of HEK-293 cells with human recombinant CB2R, [3H]CP-55,940, class symbols, read-out: CB2 IC50
[7] = membranes of HEK-293 cells with human recombinant CB1R, [3H]CP-55,940, class symbols, read-out: CB1 IC50

human recombinant CB1R, sequence (P21554 whole entry): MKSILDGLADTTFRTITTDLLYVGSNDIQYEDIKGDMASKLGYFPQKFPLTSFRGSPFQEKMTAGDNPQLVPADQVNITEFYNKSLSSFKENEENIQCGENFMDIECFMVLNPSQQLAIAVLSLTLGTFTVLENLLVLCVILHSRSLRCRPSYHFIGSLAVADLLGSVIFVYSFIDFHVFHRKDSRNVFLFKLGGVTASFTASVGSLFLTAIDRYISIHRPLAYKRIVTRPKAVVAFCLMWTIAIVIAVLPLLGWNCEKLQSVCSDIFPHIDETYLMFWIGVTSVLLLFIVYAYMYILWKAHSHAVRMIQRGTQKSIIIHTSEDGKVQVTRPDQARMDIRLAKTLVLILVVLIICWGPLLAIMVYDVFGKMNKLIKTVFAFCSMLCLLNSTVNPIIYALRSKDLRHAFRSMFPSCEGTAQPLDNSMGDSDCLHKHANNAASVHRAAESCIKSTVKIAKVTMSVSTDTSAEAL
T1 sequence (P34972 whole entry): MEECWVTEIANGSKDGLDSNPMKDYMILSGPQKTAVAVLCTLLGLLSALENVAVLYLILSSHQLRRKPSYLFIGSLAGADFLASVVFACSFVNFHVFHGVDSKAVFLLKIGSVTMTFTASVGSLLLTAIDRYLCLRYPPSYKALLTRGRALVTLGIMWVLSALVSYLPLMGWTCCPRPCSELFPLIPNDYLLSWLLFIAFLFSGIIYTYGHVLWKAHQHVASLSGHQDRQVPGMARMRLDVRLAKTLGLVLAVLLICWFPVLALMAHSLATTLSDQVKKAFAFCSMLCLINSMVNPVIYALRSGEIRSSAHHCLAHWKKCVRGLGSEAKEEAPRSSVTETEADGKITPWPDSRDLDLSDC

| Compound | pIC50 [2, 5] | pIC50 [1, 6] | pIC50 [2, 7] | other results |
| --- | --- | --- | --- | --- |
| CC1CCC(NC(=O)c2c(O)c3cc(-c4ccc(F)cc4)cnc3n(CCN3CCOCC3)c2=O)CC1 (centres unmarked) [Compound 5, 6-(4-fluorophenyl)-4-hydroxy-N-(4-methylcyclohexyl)-1-(2-morpholinoethyl)-2-oxo-1,2-dihydro-1,8-naphthyridine-3-carboxamide] | 5.41 | – | – | pIC50 [1, 4]: 8.19; pIC50 [3]: 7.15; Emax [3]: 75% |
| O=C(NC1CC2(CCC2)C1)c1c(O)c2cc(-c3ccc(F)cc3)cnc2n(CCN2CCOCC2)c1=O [Compound 6, 6-(4-fluorophenyl)-4-hydroxy-1-(2-morpholinoethyl)-2-oxo-N-(spiro[3.3]heptan-2-yl)-1,2-dihydro-1,8-naphthyridine-3-carboxamide] | < 5.00 | – | – | pIC50 [1, 4]: 8.21; pIC50 ([3]; cAMP Hunter CHO-K-1 cells expressing human CB2 receptor, read-out: cAMP IC50): < 6.00 |
| CC1CCC(NC(=O)c2c(O)c3cc(-c4ccc(C#N)cc4)cnc3n(CCN3CCOCC3)c2=O)CC1 (centres unmarked) [Compound 16, 6-(4-cyanophenyl)-4-hydroxy-N-(4-methylcyclohexyl)-1-(2-morpholinoethyl)-2-oxo-1,2-dihydro-1,8-naphthyridine-3-carboxamide] | < 5.00 | – | – | Emax [3]: 30% |
| O=C(NC1CC2(CCC2)C1)c1cc2cc(-c3ccc(OC(F)F)cn3)cnc2n(CCN2CCOCC2)c1=O [Compound 47, 6-(5-(difluoromethoxy)pyridin-2-yl)-1-(2-morpholinoethyl)-2-oxo-N-(spiro[3.3]heptan-2-yl)-1,2-dihydro-1,8-naphthyridine-3-carboxamide] | < 5.00 | – | – | Emax [3]: 48% |
| CC(NC(=O)c1cc2cc(-c3ccc(C#N)cn3)cnc2n(CCN2CCOCC2)c1=O)c1ccc(F)cc1 (centres unmarked) [Compound 58, 6-(5-cyanopyridin-2-yl)-N-(1-(4-fluorophenyl)ethyl)-1-(2-morpholinoethyl)-2-oxo-1,2-dihydro-1,8-naphthyridine-3-carboxamide] | < 5.00 | – | – | Emax [3]: 77% |
| N#Cc1ccc(C2(NC(=O)c3cc4cc(Br)cnc4n(Cc4ccc(F)cc4)c3=O)CC2)cc1 [Compound 92, 6-bromo-N-(1-(4-cyanophenyl)cyclopropyl)-1-(4-fluorobenzyl)-2-oxo-1,2-dihydro-1,8-naphthyridine-3-carboxamide] | – | > 7.00 | – | pIC50 [3]: 8.44; Emax [3]: 108% |
| C[C@H]1CC[C@H](NC(=O)c2c(O)c3cccnc3n(Cc3ccc(F)cc3)c2=O)CC1 [Compound 144, 1-(4-fluorobenzyl)-4-hydroxy-N-((1r, 4r)-4-methylcyclohexyl)-2-oxo-1,2-dihydro-1,8-naphthyridine-3-carboxamide] | < 5.00 | – | – | pIC50 [1, 4]: 5.82 |
| O=C(NC1(CO)CCCCC1)c1c(O)c2cccnc2n(Cc2ccc(F)cc2)c1=O [Compound 145, 1-[(4-fluorophenyl)methyl]-4-hydroxy-N-[1-(hydroxymethyl)cyclohexyl]-2-oxo-1,8-naphthyridine-3-carboxamide] | – | > 7.00 | < 6.00 | – |
| O=C(NC12CC(C1)C2)c1c(O)c2nccnc2n(CCN2CCOCC2)c1=O [Compound 146, N-(bicyclo[1.1.1]pentan-1-yl)-8-hydroxy-5-(2-morpholinoethyl)-6-oxo-5,6-dihydropyrido[2,3-b]pyrazine-7-carboxamide] | – | < 6.00 | < 6.00 | – |
| O=C(NC12CC(C1)C2)c1c(O)c2nccnc2n(Cc2ccc(F)cc2)c1=O [Compound 147, N-(bicyclo[1.1.1]pentan-1-yl)-5-(4-fluorobenzyl)-8-hydroxy-6-oxo-5,6-dihydropyrido[2,3-b]pyrazine-7-carboxamide] | – | < 6.00 | < 6.00 | – |
| COc1ccc(-c2cnc3c(c2)c(O)c(C(=O)N[C@H]2CC[C@H](C)CC2)c(=O)n3CCN2CCOCC2)cc1 [Compound 148, 4-hydroxy-6-(4-methoxyphenyl)-N-((1R,4R)-4-methylcyclohexyl)-1-(2-morpholinoethyl)-2-oxo-1,2-dihydro-1,8-naphthyridine-3-carboxamide] | – | < 6.00 | < 6.00 | – |
| COc1ccc(-c2cnc3c(c2)c(O)c(C(=O)N[C@H]2CC[C@@H](C)CC2)c(=O)n3CCN2CCOCC2)cc1 [Compound 149, 4-hydroxy-6-(4-methoxyphenyl)-N-((1s,4S)-4-methylcyclohexyl)-1-(2-morpholinoethyl)-2-oxo-1,2-dihydro-1,8-naphthyridine-3-carboxamide] | – | > 7.00 | < 6.00 | – |
| COc1ccc(-c2cnc3c(c2)c(O)c(C(=O)N[C@H](C)c2ccc(F)cc2)c(=O)n3CCN2CCOCC2)cc1 [Compound 150, (R)—N-(1-(4-fluorophenyl)ethyl)-4-hydroxy-6-(4-methoxyphenyl)-1-(2-morpholinoethyl)-2-oxo-1,2-dihydro-1,8-naphthyridine-3-carboxamide] | – | – | < 6.00 | pIC50 [1]: 6.00 to 7.00 |
| COc1ccc(-c2cnc3c(c2)c(O)c(C(=O)N[C@@H](C)c2ccc(F)cc2)c(=O)n3CCN2CCOCC2)cc1 [Compound 151, (S)—N-(1-(4-fluorophenyl)ethyl)-4-hydroxy-6-(4-methoxyphenyl)-1-(2-morpholinoethyl)-2-oxo-1,2-dihydro-1,8-naphthyridine-3-carboxamide] | – | < 6.00 | < 6.00 | – |
| COc1ccc(-c2cnc3c(c2)c(O)c(C(=O)NC2CCCCC2)c(=O)n3CCN2CCOCC2)cc1 [Compound 152, N-cyclohexyl-4-hydroxy-6-(4-methoxyphenyl)-1-(2-morpholinoethyl)-2-oxo-1,2-dihydro-1,8-naphthyridine-3-carboxamide] | – | – | < 6.00 | pIC50 [1]: 6.00 to 7.00 |
| O=C(NC1CCCCC1)c1c(O)c2cc(-c3ccc(F)cc3)cnc2n(CCN2CCOCC2)c1=O [Compound 153, N-cyclohexyl-6-(4-fluorophenyl)-4-hydroxy-1-(2-morpholinoethyl)-2-oxo-1,2-dihydro-1,8-naphthyridine-3-carboxamide] | – | > 7.00 | < 6.00 | – |
| C[C@H]1CC[C@H](NC(=O)c2c(O)c3cc(-c4ccc(OC(F)F)cc4)cnc3n(CCN3CCOCC3)c2=O)CC1 [Compound 155, 6-(4-(difluoromethoxy)phenyl)-4-hydroxy-N-((1R,4R)-4-methylcyclohexyl)-1-(2-morpholinoethyl)-2-oxo-1,2-dihydro-1,8-naphthyridine-3-carboxamide] | – | < 6.00 | < 6.00 | – |
| C[C@H]1CC[C@@H](NC(=O)c2c(O)c3cc(-c4ccc(OC(F)F)cc4)ccc3n(CCN3CCOCC3)c2=O)CC1 [Compound 158, 6-(4-(difluoromethoxy)phenyl)-4-hydroxy-N-((1s,4S)-4-methylcyclohexyl)-1-(2-morpholinoethyl)-2-oxo-1,2-dihydroquinoline-3-carboxamide] | – | > 7.00 | < 6.00 | – |
| C[C@H]1CC[C@@H](NC(=O)c2c(O)c3cc(-c4ccc(F)cc4)ccc3n(CCN3CCOCC3)c2=O)CC1 [Compound 159, 6-(4-fluorophenyl)-4-hydroxy-N-((1s,4S)-4-methylcyclohexyl)-1-(2-morpholinoethyl)-2-oxo-1,2-dihydroquinoline-3-carboxamide] | – | > 7.00 | – | pIC50 [2]: 6.00 to 7.00 |
| COc1ccc(-c2ccc3c(c2)c(O)c(C(=O)N[C@H]2CC[C@@H](C)CC2)c(=O)n3CCN2CCOCC2)cc1 [Compound 161, 4-hydroxy-6-(4-methoxyphenyl)-N-((1s,4S)-4-methylcyclohexyl)-1-(2-morpholinoethyl)-2-oxo-1,2-dihydroquinoline-3-carboxamide] | – | > 7.00 | < 6.00 | – |
